The numbers were not newly measured in US20050070607A1, “N-acetylcysteine compositions and methods for the treatment and prevention of cysteine/glutathione deficiency in diseases and conditions” (priority 2003, published 2005), which cites them from elsewhere.

One data set relates to HIV infected individuals. The note with it: whole blood GSH; OTC 1500-3000 mg/day po; n 37; 4 weeks; Barditch-Crovo 1998[283].
In the next data set the test system is human atherosclerosis. The note with it: brachial artery flow-mediated dilation; 4.5 g OTC po; n 48; 4 hours; Vita 1998[15].
The test system of the next data set is chronic renal failure. To be noted: regular users consuming >=1.4 g/day on average, absence of aspirin use; Fored[184].
The next data set deals with Cystic Fibrosis (CF). The note with it: air trapping and FEV1; NAC or Ambroxol 200 mg 3 times daily; n 36; 12 weeks; Ratjen 1985[274].
In another data set the test system is acute lung injury. The note with it: RBC GSH, days of acute lung injury, cardiac index; NAC 70 mg/kg q 8 hr IV; OTZ 63 mg/kg q 8 hr IV; n 48; 10 days; Bernard 1997[222].

In the case of `O=C1N[C@H](C(=O)O)CS1` [OTC, L-2-oxothiazolidine-4-carboxylic acid], the Beneficial effects entry in the data set with HIV infected individuals and with human atherosclerosis was “Beneficial” each time.

As for `CSCC[C@H](N)C(=O)O` [methionine], the “Hearing loss and cochlear damage from aminoglycoside antibiotics and cisplatin” value with cochlea (animal models [245-247]) is on record as “greatly reduced”. Besides, the “permanent cochlear damage due to acute acoustic overexposure” value in the data set on cochlea (animal models, systemic administration [246,248]) was “almost completely prevented”. As for `CC(=O)Nc1ccc(O)cc1` [acetaminophen], the “relative risk of chronic renal failure” value in the data set with chronic renal failure is 5.3. For the compound `Nc1c(Br)cc(Br)cc1CN[C@H]1CC[C@H](O)CC1` [Ambroxol], in the data set with Cystic Fibrosis (CF), the Beneficial effects entry was “Beneficial”. Take `O=C1N[C@H](C(=O)O)CS1` [OTZ]: the Beneficial effects result with acute lung injury was “Beneficial”.
